Laboratory results from ChEMBL document CHEMBL3885861, “Open TG-GATES”.

Species on record: Rattus norvegicus
Assay: Open TG-GATES - Regimen: Single
Format: toxicity, organism-based, Sprague-Dawley
Set-up: regimen Single, gender Male, age 6 weeks
Conditions: in vivo, po, 300 mg/kg, route gavage, dose level Middle; for APTT / Bas / Eos / Fbg / Hb / Ht / Lym / MCH / MCHC / MCV / Mono / Neu / PT / Plat / RBC / Ret / WBC: tissue Blood; for KIDNEY_L / KIDNEY_R / KIDNEY_TOTAL: tissue Kidney; for LIVER: tissue Liver; for A/G / ALP / ALT / AST / BUN / CRE / Ca / Cl / DBIL / GLC / IP / K / LDH / Na / PL / RALB / TBIL / TC / TG / TP / gamma-GTP: tissue Plasma

Work on `COC1=CC(=O)C[C@@H](C)[C@]12Oc1c(Cl)c(OC)cc(OC)c1C2=O` [GRISEOFULVIN] yielded a TERMINAL_BW (3 h) of 212.4 g, an APTT (3 h) of 18.3 s and a Bas (3 h) of 0%. For the same compound, the Eos (3 h) was 1.2%, the Fbg (3 h) was 229.2 mg/dL and the Hb (3 h) was 12.7 g/dL. It also gave a Ht (3 h) of 37.4%, a Lym (3 h) of 71.6% and an MCH (3 h) of 21.5 pg. The MCHC (3 h) was 34.1%, the MCV (3 h) was 63.1 fL and the Mono (3 h) was 3.4%. It also gave a Neu (3 h) of 23.2%, a PT (3 h) of 12.9 s and a Plat (3 h) of 130.7 x10_4/uL. The RBC (3 h) was 592 x10_4/ul, the Ret (3 h) was 7.8% and the WBC (3 h) was 110.1 x10_2/uL. For the same compound, the KIDNEY_L (3 h) was 0.9 g, the KIDNEY_R (3 h) was 0.9 g and the KIDNEY_TOTAL (3 h) was 1.9 g. It also gave an LIVER (3 h) of 9.7 g, an A/G (3 h) of 1.6 and an ALP (3 h) of 1144 IU/L. For the same compound, the ALT (3 h) was 40.8 IU/L, the AST (3 h) was 69.2 IU/L and the BUN (3 h) was 11.2 mg/dL. For the same compound, the CRE (3 h) was 0.3 mg/dL, the Ca (3 h) was 11 mg/dL and the Cl (3 h) was 104.2 meq/L. It also gave a DBIL (3 h) of 0.2 mg/dL, a GLC (3 h) of 190.4 mg/dL and an IP (3 h) of 8.7 mg/dL. It also gave a K (3 h) of 4 meq/L, an LDH (3 h) of 113.8 IU/L and a Na (3 h) of 140.8 meq/L. The PL (3 h) was 175.8 mg/dL, the RALB (3 h) was 3.3 g/dL and the TBIL (3 h) was 0.2 mg/dL. It also gave a TC (3 h) of 84.8 mg/dL, a TG (3 h) of 134.8 mg/dL and a TP (3 h) of 5.3 g/dL. The gamma-GTP (3 h) was 1.2 IU/L, the TERMINAL_BW (6 h) was 212.5 g and the APTT (6 h) was 17.7 s. The Bas (6 h) was 0%, the Eos (6 h) was 1% and the Fbg (6 h) was 220.2 mg/dL. The Hb (6 h) was 12.8 g/dL, the Ht (6 h) was 38.1% and the Lym (6 h) was 72.6%. It also gave an MCH (6 h) of 21.8 pg, an MCHC (6 h) of 33.6% and an MCV (6 h) of 64.7 fL. It also gave a Mono (6 h) of 3.6%, a Neu (6 h) of 22.4% and a PT (6 h) of 13.1 s. The Plat (6 h) was 129.2 x10_4/uL, the RBC (6 h) was 588.6 x10_4/ul and the Ret (6 h) was 7.9%. The WBC (6 h) was 82.9 x10_2/uL, the KIDNEY_L (6 h) was 1 g and the KIDNEY_R (6 h) was 1 g. The KIDNEY_TOTAL (6 h) was 2 g, the LIVER (6 h) was 9.5 g and the A/G (6 h) was 1.8. The ALP (6 h) was 1072.4 IU/L, the ALT (6 h) was 37.2 IU/L and the AST (6 h) was 68.4 IU/L. The BUN (6 h) was 10.2 mg/dL, the CRE (6 h) was 0.4 mg/dL and the Ca (6 h) was 10.8 mg/dL. The Cl (6 h) was 103.2 meq/L, the DBIL (6 h) was 0.096 mg/dL and the GLC (6 h) was 205.6 mg/dL. The IP (6 h) was 9.7 mg/dL, the K (6 h) was 4 meq/L and the LDH (6 h) was 139.2 IU/L. It also gave a Na (6 h) of 141.4 meq/L, a PL (6 h) of 150.6 mg/dL and an RALB (6 h) of 3.4 g/dL. For the same compound, the TBIL (6 h) was 0.2 mg/dL, the TC (6 h) was 79 mg/dL and the TG (6 h) was 50.4 mg/dL. The TP (6 h) was 5.4 g/dL, the gamma-GTP (6 h) was 1.4 IU/L and the TERMINAL_BW (9 h) was 210.4 g. It also gave an APTT (9 h) of 17.3 s, a Bas (9 h) of 0% and an Eos (9 h) of 0.8%. It also gave a Fbg (9 h) of 214 mg/dL, a Hb (9 h) of 12.9 g/dL and a Ht (9 h) of 38.2%. The Lym (9 h) was 79.4%, the MCH (9 h) was 21.4 pg and the MCHC (9 h) was 33.9%. The MCV (9 h) was 63.1 fL, the Mono (9 h) was 2.6% and the Neu (9 h) was 17%. For the same compound, the PT (9 h) was 13.6 s, the Plat (9 h) was 115.4 x10_4/uL and the RBC (9 h) was 605 x10_4/ul. For the same compound, the Ret (9 h) was 8.2%, the WBC (9 h) was 82.6 x10_2/uL and the KIDNEY_L (9 h) was 1 g. For the same compound, the KIDNEY_R (9 h) was 1 g, the KIDNEY_TOTAL (9 h) was 2 g and the LIVER (9 h) was 8.7 g. It also gave an A/G (9 h) of 1.6, an ALP (9 h) of 1051.6 IU/L and an ALT (9 h) of 30.8 IU/L. The AST (9 h) was 63 IU/L, the BUN (9 h) was 11.4 mg/dL and the CRE (9 h) was 0.3 mg/dL. For the same compound, the Ca (9 h) was 10.6 mg/dL, the Cl (9 h) was 103.8 meq/L and the DBIL (9 h) was 0.07 mg/dL. The GLC (9 h) was 200.2 mg/dL, the IP (9 h) was 10.3 mg/dL and the K (9 h) was 3.8 meq/L. For the same compound, the LDH (9 h) was 132.4 IU/L, the Na (9 h) was 141.6 meq/L and the PL (9 h) was 140.6 mg/dL. It also gave an RALB (9 h) of 3.3 g/dL, a TBIL (9 h) of 0.1 mg/dL and a TC (9 h) of 75 mg/dL. It also gave a TG (9 h) of 43 mg/dL, a TP (9 h) of 5.4 g/dL and a gamma-GTP (9 h) of 1.2 IU/L. It also gave a TERMINAL_BW (24 h) of 223.4 g, an APTT (24 h) of 18.9 s and a Bas (24 h) of 0%. It also gave an Eos (24 h) of 0.8%, a Fbg (24 h) of 204.6 mg/dL and a Hb (24 h) of 13.3 g/dL. The Ht (24 h) was 40%, the Lym (24 h) was 76.2% and the MCH (24 h) was 21.5 pg. For the same compound, the MCHC (24 h) was 33.3%, the MCV (24 h) was 64.5 fL and the Mono (24 h) was 2.4%. The Neu (24 h) was 19.8%, the PT (24 h) was 12.7 s and the Plat (24 h) was 125.2 x10_4/uL. For the same compound, the RBC (24 h) was 621 x10_4/ul, the Ret (24 h) was 7.3% and the WBC (24 h) was 85.6 x10_2/uL. It also gave a KIDNEY_L (24 h) of 1 g, a KIDNEY_R (24 h) of 1 g and a KIDNEY_TOTAL (24 h) of 1.9 g. The LIVER (24 h) was 10.9 g, the A/G (24 h) was 1.8 and the ALP (24 h) was 958.6 IU/L. The ALT (24 h) was 42.8 IU/L, the AST (24 h) was 64.8 IU/L and the BUN (24 h) was 14.6 mg/dL. It also gave a CRE (24 h) of 0.4 mg/dL, a Ca (24 h) of 10.9 mg/dL and a Cl (24 h) of 103.8 meq/L. For the same compound, the DBIL (24 h) was 0.1 mg/dL, the GLC (24 h) was 208 mg/dL and the IP (24 h) was 8.1 mg/dL. For the same compound, the K (24 h) was 4.2 meq/L, the LDH (24 h) was 119.8 IU/L and the Na (24 h) was 141.4 meq/L. For the same compound, the PL (24 h) was 144.6 mg/dL, the RALB (24 h) was 3.4 g/dL and the TBIL (24 h) was 0.2 mg/dL. For the same compound, the TC (24 h) was 76.8 mg/dL, the TG (24 h) was 102 mg/dL and the TP (24 h) was 5.4 g/dL. It also gave a gamma-GTP (24 h) of 1.4 IU/L.
